Experimental data as given in patent US7888363B2, “Viral polymerase inhibitors” (Boehringer Ingelheim International GmbH, priority 2003, dated 2011).

target: hepatitis C virus RNA dependant polymerase (NS5B) (Hepatitis C virus genotype 1b, UniProt P26663); assay: Inhibition of NS5B RNA dependent RNA polymerase activity; type: biochemical; settings: Table 1; HCV NS5B polymerase
Description: A suitable assay is described in the examples.
Inhibition of NS5B RNA Dependent RNA Polymerase Activity
The compounds of the invention were tested for inhibitory activity against the hepatitis C virus RNA dependant polymerase (NS5B), according to protocol described in WO 03/010141

hepatitis C virus RNA dependant polymerase (NS5B), sequence (P26663 2420-3010): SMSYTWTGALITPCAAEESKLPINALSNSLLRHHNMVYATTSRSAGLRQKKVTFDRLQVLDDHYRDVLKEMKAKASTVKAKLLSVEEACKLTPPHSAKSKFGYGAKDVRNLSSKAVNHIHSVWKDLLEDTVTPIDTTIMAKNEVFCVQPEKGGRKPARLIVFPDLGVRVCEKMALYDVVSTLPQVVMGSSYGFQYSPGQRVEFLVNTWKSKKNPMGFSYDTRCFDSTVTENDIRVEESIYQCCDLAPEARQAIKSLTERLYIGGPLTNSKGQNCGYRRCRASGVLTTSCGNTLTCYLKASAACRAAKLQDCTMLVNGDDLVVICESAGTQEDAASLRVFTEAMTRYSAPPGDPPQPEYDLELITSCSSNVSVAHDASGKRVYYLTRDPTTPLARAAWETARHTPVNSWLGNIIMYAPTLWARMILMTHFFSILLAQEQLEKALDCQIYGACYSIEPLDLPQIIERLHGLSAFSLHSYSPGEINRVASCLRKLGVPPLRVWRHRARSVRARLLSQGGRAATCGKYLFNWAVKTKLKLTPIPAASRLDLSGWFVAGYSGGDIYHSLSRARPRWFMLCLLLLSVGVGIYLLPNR

IC50 [nM] | Compound
< 200 | CN(CCc1ccccn1)C(=O)Cn1c(-c2ccoc2)c(C2CCCCC2)c2ccc(C(=O)O)cc21 [Example 1103]
< 200 | CN(C)C(=O)CN(C)C(=O)Cn1c(-c2ccoc2)c(C2CCCCC2)c2ccc(C(=O)O)cc21 [Example 1121]
200 to 1000 | O=C(O)c1ccc2c(C3CCCCC3)c(-c3ccccn3)n(CC(=O)N3CCCC3)c2c1 [Example 1084]
200 to 1000 | O=C(Cn1c(-c2ccoc2)c(C2CCCCC2)c2ccc(C(=O)O)cc21)Nc1cccc(C(=O)O)c1 [Example 1070]
< 200 | O=C(O)c1ccc2c(C3CCCCC3)c(-c3ccccc3)n(CC(=O)N3CCC(N4CCCC4)CC3)c2c1 [Example 1024]
< 200 | CN1CCC(N(C)C(=O)Cn2c(-c3ccoc3)c(C3CCCCC3)c3ccc(C(=O)O)cc32)CC1 [Example 1104]
< 200 | O=C(O)c1ccc2c(C3CCCCC3)c(-c3ccco3)n(CC(=O)N3CCOCC3)c2c1 [Example 1030]
200 to 1000 | CC(C)NC(=O)Cn1c(-c2ccco2)c(C2CCCCC2)c2ccc(C(=O)O)cc21 [Example 1032]
200 to 1000 | O=C(Cn1c(-c2ccoc2)c(C2CCCCC2)c2ccc(C(=O)O)cc21)NCc1ccccc1 [Example 1063]
< 200 | Nc1cccc(-c2c(C3CCCCC3)c3ccc(C(=O)O)cc3n2CC(=O)N2CCC(N3CCCC3)CC2)n1 [Example 1050]
< 200 | CCN(CC)CCN(C)C(=O)Cn1c(-c2ccoc2)c(C2CCCCC2)c2ccc(C(=O)O)cc21 [Example 1021]
200 to 1000 | COCCNC(=O)Cn1c(-c2ccoc2)c(C2CCCCC2)c2ccc(C(=O)O)cc21 [Example 1107]
< 200 | CN(C)C(=O)Cn1c(-c2ccco2)c(C2CCCCC2)c2ccc(C(=O)O)cc21 [Example 1031]
< 200 | O=C(O)c1ccc2c(C3CCCCC3)c(-c3ccsc3)n(CC(=O)N3CCOCC3)c2c1 [Example 1027]
200 to 1000 | CCCN(CCC)C(=O)Cn1c(-c2ccoc2)c(C2CCCCC2)c2ccc(C(=O)O)cc21 [Example 1011]
< 200 | CN(C)C(=O)[C@@H]1CCCN1C(=O)Cn1c(-c2ccoc2)c(C2CCCCC2)c2ccc(C(=O)O)cc21 [Example 1122]
< 200 | CN(C)CCN(C)C(=O)Cn1c(-c2ccoc2)c(C2CCCCC2)c2ccc(C(=O)O)cc21 [Example 1112]
< 200 | CN(C)CCCN(C)C(=O)Cn1c(-c2ccoc2)c(C2CCCCC2)c2ccc(C(=O)O)cc21 [Example 1019]

IC50 [nM] | Compound
< 200 | CN(C)C(=O)Cn1c(-c2cccs2)c(C2CCCCC2)c2ccc(C(=O)O)cc21 [Example 1035]
200 to 1000 | CCCN(CCOC)C(=O)Cn1c(-c2ccoc2)c(C2CCCCC2)c2ccc(C(=O)O)cc21 [Example 1015]
200 to 1000 | O=C(O)c1ccc2c(C3CCCCC3)c(-c3ccc(Br)cn3)n(CC(=O)N3CCC[C@H]3C(=O)O)c2c1 [Example 1137]
< 200 | O=C(O)c1ccc2c(C3CCCCC3)c(-c3ccco3)n(CC(=O)N3CCC(N4CCCC4)CC3)c2c1 [Example 1038]
200 to 1000 | O=C(O)c1ccc2c(C3CCCC3)c(-c3ccccn3)n(CC(=O)N3CCCC3)c2c1 [Example 1086]
< 200 | O=C(O)c1ccc2c(C3CCCCC3)c(-c3ccoc3)n(CC(=O)N3CCN(CCO)CC3)c2c1 [Example 1096]
200 to 1000 | CN(CC(=O)O)C(=O)Cn1c(-c2ccc(Br)cn2)c(C2CCCCC2)c2ccc(C(=O)O)cc21 [Example 1138]
200 to 1000 | CN(C)C(=O)Cn1c(-c2ccc(Br)cn2)c(C2CCCCC2)c2ccc(C(=O)O)cc21 [Example 1136]
1000 to 10000 | O=C(O)c1ccc2c(C3CCCCC3)c(-c3csc4ccccc34)n(CC(=O)N3CCOCC3)c2c1 [Example 1047]
< 200 | O=C(O)c1ccc2c(C3CCCCC3)c(-c3ccoc3)n(CC(=O)N3CCC(CCO)CC3)c2c1 [Example 1102]
< 200 | O=C(O)c1ccc2c(C3CCCCC3)c(-c3ccoc3)n(CC(=O)N3C[C@@H](O)C[C@H]3C(=O)O)c2c1 [Example 1128]
200 to 1000 | O=C(O)c1ccc2c(C3CCCCC3)c(-c3csc(N4CCCCC4)n3)n(CC(=O)N3CCOCC3)c2c1 [Example 1040]
< 200 | CN(CC(=O)O)C(=O)Cn1c(-c2ccoc2)c(C2CCCCC2)c2ccc(C(=O)O)cc21 [Example 1072]
200 to 1000 | O=C(O)CN(Cc1ccccc1)C(=O)Cn1c(-c2ccoc2)c(C2CCCCC2)c2ccc(C(=O)O)cc21 [Example 1109]
< 200 | O=C(O)CNNC(=O)Cn1c(-c2ccoc2)c(C2CCCCC2)c2ccc(C(=O)O)cc21 [Example 1068]
200 to 1000 | O=C(Cc1ccccc1)NNC(=O)Cn1c(-c2ccoc2)c(C2CCCCC2)c2ccc(C(=O)O)cc21 [Example 1117]
< 200 | CN1CCCN(C(=O)Cn2c(-c3ccoc3)c(C3CCCCC3)c3ccc(C(=O)O)cc32)CC1 [Example 1003]
< 200 | O=C(O)CN1CCN(C(=O)Cn2c(-c3ccc(Br)cn3)c(C3CCCCC3)c3ccc(C(=O)O)cc32)CC1 [Example 1139]

same assay, conditions: Table 2; HCV NS5B polymerase

IC50 [nM] | Compound
< 200 | COC(=O)c1ccccc1S(=O)(=O)NC(=O)c1ccc2c(C3CCCCC3)c(-c3ccoc3)n(CC(=O)N3CCOCC3)c2c1 [Example 2006]
< 200 | O=C(NS(=O)(=O)c1ccc(Cl)cc1)c1ccc2c(C3CCCCC3)c(-c3ccoc3)n(CC(=O)N3CCOCC3)c2c1 [Example 2019]
< 200 | Cc1c(S(=O)(=O)NC(=O)c2ccc3c(C4CCCCC4)c(-c4ccoc4)n(CC(=O)N4CCOCC4)c3c2)sc2ccc(F)cc12 [Example 2020]

same assay, conditions: Table 3; HCV NS5B polymerase

IC50 [nM] | Compound
< 200 | O=C(O)/C=C/c1ccc(NC(=O)C2(NC(=O)c3ccc4c(C5CCCCC5)c(-c5ccccn5)n(CC(=O)N5CCCC5)c4c3)CCC2)cc1 [Example 3008]

same assay, conditions: Table 4; class ranges

IC50 [nM] | Compound
< 200 | COc1ccc(CNC(=O)c2ccc3c(C4CCCCC4)c(-c4ccoc4)n(CC(=O)N4CCN(C)CC4)c3c2)cc1OC [Example 4003]
200 to 1000 | CN1CCN(C(=O)Cn2c(-c3ccoc3)c(C3CCCCC3)c3ccc(C(=O)NCc4ccc(F)cc4)cc32)CC1 [Example 4022]
200 to 1000 | CN1CCN(C(=O)Cn2c(-c3ccoc3)c(C3CCCCC3)c3ccc(C(=O)NCC4CC4)cc32)CC1 [Example 4034]
200 to 1000 | CNC(=O)c1ccc2c(C3CCCCC3)c(-c3ccoc3)n(CC(=O)N3CCN(C)CC3)c2c1 [Example 4028]
< 200 | Cn1c(C2(NC(=O)c3ccc4c(C5CCCCC5)c(-c5ccoc5)n(CC(=O)N5CCOCC5)c4c3)CCC2)nc2ccc(C=CC(=O)O)cc21 [Example 4082]
200 to 1000 | C[C@@H](NC(=O)c1ccc2c(C3CCCCC3)c(-c3ccoc3)n(CC(=O)N3CCN(C)CC3)c2c1)c1ccccc1 [Example 4039]
200 to 1000 | CC(C)(NC(=O)c1ccc2c(C3CCCCC3)c(-c3ccoc3)n(CC(=O)N3CCC(N4CCCC4)CC3)c2c1)c1ccccc1 [Example 4060]
200 to 1000 | CCOC(=O)c1nc(C2(NC(=O)c3ccc4c(C5CCCCC5)c(-c5ccoc5)n(CC(=O)N5CCC(N6CCCC6)CC5)c4c3)CCC2)cs1 [Example 4108]
< 200 | COc1cc(CNC(=O)c2ccc3c(C4CCCCC4)c(-c4ccoc4)n(CC(=O)N4CCN(C)CC4)c3c2)ccc1O [Example 4030]
200 to 1000 | COC(=O)C1(NC(=O)c2ccc3c(C4CCCCC4)c(-c4ccoc4)n(CC(=O)N4CCOCC4)c3c2)CCCCC1 [Example 4076]
< 200 | COc1ccc([C@@H](C)NC(=O)c2ccc3c(C4CCCCC4)c(-c4ccoc4)n(CC(=O)N(C)C)c3c2)cc1 [Example 4059]
1000 to 10000 | CN1CCN(C(=O)Cn2c(-c3ccccn3)c(C3CCCCC3)c3ccc(C(N)=O)cc32)CC1 [Example 4001]
200 to 1000 | Cc1cnc(CNC(=O)c2ccc3c(C4CCCCC4)c(-c4ccoc4)n(CC(=O)N4CCN(C)CC4)c3c2)cn1 [Example 4044]
< 200 | CN(C)C(=O)C1(NC(=O)c2ccc3c(C4CCCCC4)c(-c4ccoc4)n(CC(=O)N4CCOCC4)c3c2)CCC1 [Example 4093]
200 to 1000 | CN1CCN(C(=O)Cn2c(-c3ccoc3)c(C3CCCCC3)c3ccc(C(=O)NCCC4CCCN4C)cc32)CC1 (stereo not shown) [Example 4009]
< 200 | O=C(O)C=Cc1ccc2nc(C3(NC(=O)c4ccc5c(C6CCCC6)c(-c6ccoc6)n(CC(=O)N6CCOCC6)c5c4)CCC3)[nH]c2c1 [Example 4070]

same assay, conditions: Table 5; HCV NS5B polymerase

IC50 [nM] | Compound
1000 to 10000 | C/C=C/Cn1c(-c2ccoc2)c(C2CCCCC2)c2ccc(C(=O)O)cc21 [Example 5005]

same assay, conditions: Table 7; class ranges

IC50 [nM] | Compound
200 to 1000 | COc1cc2c(C3CCCCC3)c(-c3ccoc3)n(CC(=O)N(C)C)c2cc1C(=O)O [Example 7006]
1000 to 10000 | O=C(NCCSCc1c(F)cccc1Cl)c1ccc2c(c1)c(C1CCCCC1)c(-c1ccoc1)n2CC(=O)N1CCC(N2CCCC2)CC1 [Example 7038]
1000 to 10000 | O=C(NCCOCCO)c1ccc2c(c1)c(C1CCCCC1)c(-c1ccoc1)n2CC(=O)N1CCC(N2CCCC2)CC1 [Example 7059]
200 to 1000 | COc1cc2c(C3CCCCC3)c(-c3ccoc3)n(CC(=O)N3CCC(N4CCCC4)CC3)c2cc1C(=O)O [Example 7003]
1000 to 10000 | O=C(Nc1ccc(CCO)cc1)c1ccc2c(c1)c(C1CCCCC1)c(-c1ccoc1)n2CC(=O)N1CCC(N2CCCC2)CC1 [Example 7024]
1000 to 10000 | O=C(NS(=O)(=O)c1ccccc1)c1ccc2c(c1)c(C1CCCCC1)c(-c1ccoc1)n2CC(=O)N1CCC(N2CCCC2)CC1 [Example 7063]
1000 to 10000 | COC(=O)C(Cc1ccc(O)cc1)NC(=O)c1ccc2c(c1)c(C1CCCCC1)c(-c1ccoc1)n2CC(=O)N1CCC(N2CCCC2)CC1 (stereo not shown) [Example 7057]
1000 to 10000 | O=C(O)/C=C/c1ccc(NC(=O)C2(NC(=O)c3ccc4c(c3)c(C3CCCCC3)c(-c3ccoc3)n4CC(=O)N3CCC(N4CCCC4)CC3)CCC2)cc1 [Example 7062]
1000 to 10000 | COc1ccc(CNC(=O)c2ccc3c(c2)c(C2CCCCC2)c(-c2ccoc2)n3CC(=O)N2CCC(N3CCCC3)CC2)cc1OC [Example 7028]
1000 to 10000 | CN(C)C(=O)Cn1c(-c2ccoc2)c(C2CCCCC2)c2cc(O)c(C(=O)O)cc21 [Example 7009]
